Experimental data from patent US20020183327A1, “Bicyclic imidazo-3-yl-amine derivatives substituted on the 6-membered ring” (GRUENENTHAL GMBH., priority 1999, published 2002).

Tested on: α2-subtype of the human α-adrenergic receptor
Assay: SPA assay, affinity for the α2-subtype of the human α-adrenergic receptor
Format: binding
Settings: at a concentration of 10 μM
Experimental: The affinity for the α2-subtype of the human α-adrenergic receptor was determined by means of a SPA assay conventionally used for high throughput screening as described in John P. Devlin, High Throughput Screening, Marcel Dekker Inc. 1997, pp. 307 to 316. This literature is introduced here as a reference and thus forms part of the disclosure. At a concentration of 10 μM, the following affinities for the listed examples were determined: […]

For [C-]#[N+]CCCCCCNc1c(C2CCCCC2)nc2cccc(C)n12 [Example 16], which “α2-affinity, 10 μM” value is on record?
Its value is 67%.

For Cc1ccc2nc(C)c(NC(C)(C)CC(C)(C)C)n2c1 [Example 17, (2,6-dimethylimidazo[1,2-a]pyridin-3-yl)-(1,1,3,3-tetramethylbutyl)-amine], which “α2-affinity, 10 μM” value is on record?
Its value is 65%.

For Cc1ccn2c(NC3CCCCC3)c(C)nc2c1 [Example 18, cyclohexyl-(2,7-dimethylimidazo[1,2-a]pyridin-3-yl)-amine], which “α2-affinity, 10 μM” value is on record?
Its value is 74%.

How did the “α2-affinity, 10 μM” value turn out when Cc1cc(C)n2c(NC3CCCCC3)c(C)nc2c1 [Example 19, cyclohexyl-(2,5,7-trimethylimidazo[1,2-a]pyridin-3-yl)-amine] was run?
Its value is 81%.

[C-]#[N+]CCCCCCNc1c(-c2ccc(OC)c(OC)c2)nc2ccc(C)cn12 [Example 20, [2-(3,4-dimethoxyphenyl)-6-methylimidazo[1,2-a]pyridin-3-yl]-(6-isocyanohexyl)-amine] was tested. Which “α2-affinity, 10 μM” value did it give?
Its value is 85%.

For Cc1ccn2c(NC(C)(C)CC(C)(C)C)c(C)nc2c1 [Example 21, (2,7-dimethylimidazo[1,2-a]pyridin-3-yl)-(1,1,3,3-tetramethylbutyl)-amine], which “α2-affinity, 10 μM” value is on record?
Its value is 109%.

For Cc1nc2c(C)cccn2c1NC(C)(C)CC(C)(C)C [Example 22, (2,8-dimethyl-imidazo[1,2-a]pyridin-3-yl)-(1,1,3,3-tetramethylbutyl)-amine], which “α2-affinity, 10 μM” value is on record?
Its value is 69%.

Cc1cc(C)n2c(NC(C)(C)CC(C)(C)C)c(C)nc2c1 [Example 23, (1,1,3,3-tetramethylbutyl)-(2,5,7-trimethylimidazo[1,2-a]pyridin-3-yl)-amine] was tested. Which “α2-affinity, 10 μM” value did it give?
Its value is 97%.

With [C-]#[N+]CCCCCCNc1c(-c2ccc(OC)c(OC)c2)nc2cc(C)ccn12 [Example 24, [2-(3,4-dimethoxyphenyl)-7-methylimidazo[1,2-a]pyridin-3-yl]-(6-isocyanohexyl)-amine] as the compound, how does the “α2-affinity, 10 μM” value read?
The value was 75%.

[C-]#[N+]CCCCCCNc1c(-c2ccccc2OC)nc2ccc(C)cn12 [Example 25, (6-isocyanohexyl)-[2-(2-methoxyphenyl)-6-methyl-imidazo[1,2-a]pyridin-3-yl]-amine] was tested. Which “α2-affinity, 10 μM” value did it give?
The value was 51%.

For FC(F)(F)c1ccc2nc(-c3ccco3)c(NC3CCCCC3)n2c1 [Example 26, cyclohexyl-(2-furan-2-yl-6-trifluoromethylimidazo[1,2-a]pyridin-3-yl)-amine], which “α2-affinity, 10 μM” value is on record?
The value was 70%.

For Cc1nc2c(OCc3ccccc3)cccn2c1NC(C)(C)CC(C)(C)C [Example 29, (8-benzyloxy-2-methylimidazo[1,2-a]pyridin-3-yl)-(1,1,3,3-tetramethylbutyl)-amine], which “α2-affinity, 10 μM” value is on record?
Its value is 100%.

Which “α2-affinity, 10 μM” value does the source give for COC(=O)CNc1c(C2CCCCC2)nc2c(OCc3ccccc3)cccn12 [Example 30, (8-benzyloxy-2-cyclohexylimidazo[1,2-a]pyridin-3-ylamino)-acetic acid methyl ester] here?
The value was 60%.

For COC(=O)CNc1c(C)nc2c(OCc3ccccc3)cccn12 [Example 31, (8-benzyloxy-2-methylimidazo[1,2-a]pyridin-3-ylamino)-acetic acid methyl ester], which “α2-affinity, 10 μM” value is on record?
The value was 61%.

CCCCNc1c(C2CCCCC2)nc2cccc(CCC)n12 [Example 32, Butyl-(2-cyclohexyl-5-propylimidazo[1,2-a]pyridin-3-yl)-amine] was tested. Which “α2-affinity, 10 μM” value did it give?
The value was 61%.

CC(=O)N(c1c(-c2ccco2)nc2c(Cl)cc(Cl)cn12)C1CCCCC1 [Example 33, N-cylcohexyl-N-(6,8-dichloro-2-furan-2-yl-imidazo[1,2-a]pyridin-3-yl)-acetamide] was tested. Which “α2-affinity, 10 μM” value did it give?
The value was 73%.

CC(=O)N(c1c(-c2ccco2)nc2ccc(C(F)(F)F)cn12)C1CCCCC1 [Example 34, N-cylcohexyl-N-(2-furan-2-yl-6-trifluoromethylimidazo[1,2-a]pyridin-3-yl)-acetamide] was tested. Which “α2-affinity, 10 μM” value did it give?
Its value is 72%.

Which “α2-affinity, 10 μM” value does the source give for CC(=O)N(c1c(C2CCCCC2)nc2c(OCc3ccccc3)cccn12)C1CCCCC1 [Example 35, N-(8-benzyloxy-2-cyclohexylimidazo[1,2-a]pyridin-3-yl)-N-cyclohexyl-acetamide] here?
Its value is 75%.
